Reference: patent US20220175809A1, “TREATMENT AND PREVENTION OF INFECTIONS BY HERPESVIRIDAE WITH DELPHINIDIN-3-GLUCOSIDE” (Evonik Operations GmbH, priority 2019, published 2022)

What was measured:
[1] = tested on: HHV-8; assay: Anti-viral assay, GFP-encoding HHV-8 infection (infected cells counted); format: cell-based, Herpes virus 8; conditions: materials adjusted to same anthocyanin levels, counted two days after infection
Procedure: (§1) BHK cells were incubated with decreasing concentration of the solubilized test compounds for approx. 1 h. All concentrations were analyzed by six independent replicates on a black 96 well plate (PerkinElmer). Cells were infected with GFP-encoding wildtype HSV-1 virus and incubated for two days. Two days after infection, HSV-1-infected cells and GFP expressing cells were directly counted using the PerkinElmer Ensight system with optical cell culture plates. The instrument was controlled by manual counting. Anti-viral assays for HHV8 were performed accordingly. To not only analyze the virus entry and early phase of virus replication of infection but also later phases of viral replication, the test assay was adjusted accordingly. BHK cells were incubated with test compounds and subsequently infected with HSV-1. Two days after infection supernatants were collected, centrifuged to remove detached cells and used to infect BHK cells. After two additional days infected cells were quantified using the Ensight system.
The concentrations of materials were again adjusted to the same levels of anthocyanins. No treatment or only maltodextrin served as controls. The cells were subsequently infected with GFP-encoding HHV-8, and infected GFP-expressing cells were counted two days after infection using the PerkinElmer Ensight system. […] The analysis of berry extract analogue without maltodextrin and the maltodextrin control confirmed again that the sugar moiety is not required as potential co-factor for drug uptake.

[2] = tested on: HSV-1; assay: Anti-viral assay, GFP-encoding HSV-1 infection of BHK cells (infected cells counted); format: cell-based, herpes simplex virus 1; conditions: BHK cells treated with anthocyanins, then GFP-encoding HSV-1
Procedure: as §1
The cells were subsequently infected with GFP-encoding HSV at a multiplicity of infection of 2.5, and infected GFP-expressing cells were counted one day after infection using the PerkinElmer Ensight system. […] Thus, the sugar is not required as potential co-factor for drug uptake.

OC[C@H]1OC(Oc2cc3c(O)cc(O)cc3[o+]c2-c2cc(O)c(O)c(O)c2)[C@H](O)C(O)C1O (stereo partly shown) [D3G, Delphinidin-3-glucoside]
suppression of HHV-8 viral infectivity [1]: identified as an active ingredient | suppression of HHV-8 viral infectivity ([1]; listed as D3G derived from red grape extract): reduced the number of infected cells significantly | suppression of HHV-8 viral infectivity ([1]; listed as D3G from Healthberry® 865): reduced the number of infected cells significantly | inhibition of HSV-1 (viral infectivity) [2]: decreased viral infectivity like Healthberry® 865
